{"source": "paper PMC3466269", "about": "“A Comprehensive Strategy to Discover Inhibitors of the Translesion Synthesis DNA Polymerase κ” (PLoS ONE, 2012)", "key": {"Human pol κ": {"biological_target": "T1, Human pol κ (Homo sapiens, UniProt Q9UBT6)", "T1 construct": "Human pol κ (residues 19–526) was purified as previously reported; made in house", "T1 sequence (Q9UBT6 19-526)": "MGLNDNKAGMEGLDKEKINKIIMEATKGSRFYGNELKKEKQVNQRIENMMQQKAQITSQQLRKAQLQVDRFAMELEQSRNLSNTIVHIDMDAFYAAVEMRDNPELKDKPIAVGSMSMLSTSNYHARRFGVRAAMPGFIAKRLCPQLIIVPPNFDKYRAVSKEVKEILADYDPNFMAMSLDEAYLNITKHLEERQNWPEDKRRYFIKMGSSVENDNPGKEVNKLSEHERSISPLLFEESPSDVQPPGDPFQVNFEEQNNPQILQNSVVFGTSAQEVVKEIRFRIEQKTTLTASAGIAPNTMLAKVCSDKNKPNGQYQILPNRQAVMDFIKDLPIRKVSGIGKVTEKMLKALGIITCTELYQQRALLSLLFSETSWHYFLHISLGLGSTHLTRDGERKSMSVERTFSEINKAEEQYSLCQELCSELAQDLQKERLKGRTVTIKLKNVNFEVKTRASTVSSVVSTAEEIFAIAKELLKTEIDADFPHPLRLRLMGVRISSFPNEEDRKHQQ", "assay": "Radioactive gel-based primer extension (TLS) past acrolein-derived ring-opened reduced form of γ-HOPdG, pol κ", "format": "biochemical", "conditions": "primer extension, adducted DNA, 0.25 nM pol κ; average ± standard error, three experiments; read-out: gel: ring-opened reduced form of γ-HOPdG: IC50", "description": "The reactions with pol κ, pol η, and pol ι were carried out in the buffers containing 25 mM Tris-HCl, pH 7.5, 8 mM MgCl2, 10% glycerol, 100 µg/mL bovine serum albumin, and 5 mM DTT. Buffers for pol δ reactions contained 40 mM Hepes-KOH, pH 6.8, 10% glycerol, 200 µg/mL bovine serum albumin, 1 mM DTT, and 8 mM MgCl2. Final concentration of pol κ, pol η, pol ι, or pol δ in the reaction was 0.25 nM, 1 nM, 2.5 nM, or 4 nM, respectively. In this assay, a polymerase was preincubated with the compound for 15 min at room temperature. Primer extensions were then initiated by the addition of DNA substrate at final concentration of 5 nM and carried out for 30 min at room temperature in the presence of 100 µM dCTP and dGTP. The reactions were terminated by the addition of an equal volume of a dye solution containing 95% (v/v) formamide, 10 mM EDTA, 0.03% (w/v) xylene cyanol, and 0.03% (w/v) bromphenol blue. Reaction products were separated through a 15% acrylamide gel containing 8 M urea and visualized with a PhosphorImager screen. The ratio of extended primer to the total amount of primer was measured using ImageQuant 5.2 software to calculate the percentage of primer extended. IC50 values were determined by fitting the data to variable slope four-parameter equations using GraphPad Prism 5.\nThe primary role of pol κ is to bypass DNA lesions. Therefore, it was critical to establish the assays to investigate the capability of these compounds to inhibit lesion bypass activity of pol κ. Radioactive gel-based primer extension reactions were carried out using a DNA substrate containing a site-specific acrolein-derived ring-opened reduced form of γ-HOPdG, a lesion that pol κ can efficiently bypass in vitro [13]."}, "[1]": {"test_system": "double-stranded DNA ladder", "assay": "DNA intercalation assay (agarose gel shift of DNA ladder)", "format": "binding", "conditions": "0.75 or 3 nmol compound with 1.5 nmol DNA, 1% agarose gel", "description": "Candesartan cilexetil or ethidium bromide was incubated with 1.5 nmol of double-stranded DNA ladder for 15 min at room temperature in the buffer containing 50 mM Tris-HCl, pH 8.0, 0.01% Tween-20, 1 mM DTT, and 40 mM NaCl. The reaction mixtures were run on 1% agarose gel and stained with ethidium bromide (0.5 µg/ml) for visualization.\nFigure 7 The non-DNA-intercalating property of candesartan cilexetil. Candesartan cilexetil or ethidium bromide was incubated with double-stranded DNA ladder, and the reaction products were run on 1% agarose gel and stained with ethidium bromide. Lane 1: No compound. Lane 2: 0.75 nmol of candesartan cilexetil was incubated with 1.5 nmol DNA. Lane 3: 3 nmol of candesartan cilexetil was incubated with 1.5 nmol DNA. Lane 4: 0.75 nmol of ethidium bromide was incubated with 1.5 nmol DNA. Lane 5: 3 nmol of ethidium bromide was incubated with 1.5 nmol DNA."}, "[2]": {"biological_target": "T2, Human pol κ (residues 19–526) (Homo sapiens, UniProt Q9UBT6)", "T2 construct": "Human pol κ (residues 19–526) was purified as previously reported; made in house", "T2 sequence (Q9UBT6 19-526)": "T1 sequence (Q9UBT6 19-526)", "assay": "qHTS fluorescence-based DNA strand displacement assay", "format": "biochemical", "conditions": "fluorescence strand displacement, 10 nM pol κ, 50 nM substrate, 100 µM dTTP; read-out: qHTS: IC50", "description": "The substrate used in qHTS was made by the annealing of unlabeled oligodeoxynucleotide primer (5′-TCACCCTCGTACGACTC-3′) and TAMRA-labeled reporter strand (5′-TTTTTTTTTTGC-6-TAMRA-3′) to oligodeoxynucleotide template labeled with BHQ-2 (5′-BHQ-2-[…]-3′) as originally described by Dorjsuren et al.. The annealing mixture of unlabeled primer, TAMRA-labeled reporter, and BHQ-2-labeled template in buffer containing 50 mM Tris-HCl, pH 8.0, 100 mM NaCl, and 5 mM MgCl2 was heated at 95°C for 5 min and allowed to cool gradually to room temperature. The substrate was then stored at −20°C as 50 µM stock.\nqHTS was performed in 50 mM Tris-HCI, pH 8.0, 40 mM NaCl, 1 mM MgCl2, 0.01% Tween-20, 2 mM DTT, and 100 µM dTTP. 3 µL of reagents (buffer as negative control and pol κ in the remaining plate at 10 nM final concentration) were dispensed by Flying Reagent Dispenser™ (FRD) (Beckman Coulter, Inc., Fullerton, CA) into a 1,536-well plate. Compounds were delivered as 23 nL in DMSO solution via pintool transfer; vehicle-only control consisted of 23 nL DMSO. The plate was incubated for 15 min at room temperature, and then 1 µL of substrate (50 nM final concentration) was added to initiate the reaction. The plate was immediately transferred into ViewLux reader for kinetic fluorescence data collection.\nTo lay the foundation for the methodologies to discover and characterize inhibitors of pol κ, we used a fluorescent reporter strand displacement assay (Figure 1 and [27]). The library of bioactive small molecules was tested as seven-point dilution series, with the final concentrations ranging from 2.9 nM to 57 µM."}, "XP30RO cells (XP-V)": {"test_system": "XP30RO cells (XP-V)", "assay": "Cell survival assay, crystal violet, with or without UV", "quoted_text": "Cell survival assays were carried out using crystal violet assays and CellTiter-Glo Luminescent Cell Viability Assays. In crystal violet assays, XP30RO cells were plated into clear 96-well plates at a density of 8000 cells/mL and incubated overnight at 37°C, 5% CO2. The cells were treated with (1) inhibitor alone for 6 h or (2) UV alone or (3) inhibitor alone for 6 h followed by UV irradiation. After 2 days, cells were fixed with 4% paraformaldehyde and stained with 0.5% crystal violet dye. The dye was dissolved in 10% acetic acid and absorbance measurement was taken at OD595 nm with Infinite® M200 plate reader (Tecan, Durham, NC). For the CellTiter-Glo Luminescent Cell Viability Assays, the same procedures as crystal violet assays were used except that white/clear bottom 96-well plates were used and cell viability was measured following manufacturer's recommendations.\nXP30RO cells were treated with 24 µM of candesartan cilexetil alone, UV alone at 1.5 J/m^2, 4.5 J/m^2, or 7.5 J/m^2, or in combination. Percent survival was calculated by normalizing the data using the cell survival of untreated cells. The data were obtained from three independent experiments."}}, "data": [{"smiles": "CCOc1nc2cccc(C(=O)OC(C)OC(=O)OC3CCCCC3)c2n1Cc1ccc(-c2ccccc2-c2nnn[nH]2)cc1", "note": "(centres unmarked) [candesartan cilexetil, Candesartan cilexetil]", "values": [{"measurement": "IC50", "setting": "Human pol κ", "result": "11 ± 1.5", "unit": "µM"}, {"measurement": "DNA migration pattern (intercalation)", "setting": "[1]", "result": "no difference in DNA migration pattern"}, {"measurement": "IC50", "setting": "[2]", "result": 32, "unit": "µM"}, {"measurement": "Cell survival with compound alone", "setting": "XP30RO cells (XP-V); 24 µM, no UV", "result": "cell survival was not altered"}, {"measurement": "Effect on UV-induced cytotoxicity", "setting": "XP30RO cells (XP-V); crystal violet, inhibitor 6 h then UV 1.5, 4.5 or 7.5 J/m^2, candesartan cilexetil 24 µM", "result": "potentiated the cytotoxicity of UV at higher UV doses"}]}]}
